{
  "source": "paper PMC12292628",
  "about": "“Inhibitory Effects of 3-(4-Hydroxy-3-methoxyphenyl) Propionic Acid on Amyloid β-Peptide Aggregation In Vitro” (Biomedicines, 2025)",
  "molecular_target": "T1, Aβ42 (amyloid-β protein) (Homo sapiens, UniProt P05067)",
  "T1 construct": "gene APP; synthetic Aβ42 peptide, low-molecular-weight (LMW, monomeric) Aβ42",
  "T1 sequence (P05067 672-713 limits assumed)": "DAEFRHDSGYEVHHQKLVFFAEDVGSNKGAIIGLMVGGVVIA",
  "assay": "ThT fluorescence aggregation assay with purified LMW Aβ[…] (no seeds); electron microscopy",
  "assay_type": "biochemical",
  "data": [
    {"smiles": "COc1cc(CCC(=O)O)ccc1O", "note": "[HMPA, 3-(4-Hydroxy-3-methoxyphenyl) propionic acid]", "values": [
      {"measurement": "EC50", "value": 6.37, "unit": "mM"}
    ]}
  ]
}
